Source: publication PMC3945162 (Psychopharmacology, 2013)

Key:
[1] = biological target: T1, hDAT (Homo sapiens, UniProt Q01959); conditions: read-out: [3H]Dopamine release EC50; HEK-hDAT cells; ref Gatch et al., 2011; cited from earlier work
[2] = biological target: T2, human 5-HT2A receptor (Homo sapiens, UniProt P28223); experiment: IP-1 formation, HEK-5-HT2A cells; assay type: cell-based
[3] = biological target: T1, hDAT; experiment: [3H]Dopamine release, HEK-hDAT cells; assay type: cell-based; conditions: read-out: [3H]Dopamine release % METH maximal effect
[4] = biological target: T3, hNET (Homo sapiens, UniProt P23975); experiment: cell-based
[5] = biological target: T3, hNET; conditions: read-out: [3H]NE release EC50; HEK-hNET cells; ref Gatch et al., 2011; cited from earlier work
[6] = biological target: T2, human 5-HT2A receptor; experiment: [125I]DOI binding, HEK-5-HT2A cells
[7] = biological target: T4, human 5-HT1A receptor (Homo sapiens, UniProt P08908); experiment: [35S]GTPγS binding functional assay, HEK-5-HT1A; assay type: biochemical
T4 sequence (P08908 1-422): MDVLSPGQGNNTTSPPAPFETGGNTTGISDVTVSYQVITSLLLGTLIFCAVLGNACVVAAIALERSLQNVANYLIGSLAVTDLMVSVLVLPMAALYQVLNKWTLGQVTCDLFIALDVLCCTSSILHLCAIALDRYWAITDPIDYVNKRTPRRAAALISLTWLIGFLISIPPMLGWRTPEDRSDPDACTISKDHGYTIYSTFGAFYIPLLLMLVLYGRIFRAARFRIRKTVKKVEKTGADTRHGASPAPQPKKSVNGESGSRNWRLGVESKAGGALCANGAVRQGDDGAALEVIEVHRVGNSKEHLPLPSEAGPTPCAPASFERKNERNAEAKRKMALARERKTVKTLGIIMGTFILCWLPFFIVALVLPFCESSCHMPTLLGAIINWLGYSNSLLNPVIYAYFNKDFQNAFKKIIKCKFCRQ

[8] = biological target: T5, hSERT (Homo sapiens, UniProt P31645); conditions: read-out: [3H]Serotonin release EC50; HEK-hSERT cells; ref Gatch et al., 2011; cited from earlier work
[9] = biological target: T3, hNET; experiment: biochemical; assay type: binding
[10] = biological target: T6, human 5-HT2C receptor (Homo sapiens, UniProt P28335); experiment: cell-based
T6 sequence (P28335 33-458): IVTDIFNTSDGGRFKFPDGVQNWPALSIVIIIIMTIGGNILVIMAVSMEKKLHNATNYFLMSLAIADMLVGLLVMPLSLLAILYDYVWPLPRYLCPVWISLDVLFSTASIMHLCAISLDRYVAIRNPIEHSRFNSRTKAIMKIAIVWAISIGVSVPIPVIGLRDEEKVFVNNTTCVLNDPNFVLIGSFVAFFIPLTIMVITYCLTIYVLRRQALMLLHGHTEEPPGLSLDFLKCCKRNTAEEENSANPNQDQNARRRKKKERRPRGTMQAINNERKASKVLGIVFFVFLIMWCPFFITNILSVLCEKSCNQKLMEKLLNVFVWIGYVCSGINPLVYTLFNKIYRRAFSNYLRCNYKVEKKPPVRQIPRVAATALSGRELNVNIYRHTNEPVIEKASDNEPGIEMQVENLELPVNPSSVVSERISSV

[11] = biological target: T6, human 5-HT2C receptor; experiment: biochemical; assay type: binding; conditions: read-out: 5-HT2C [125I]DOI binding Ki ± sem
[12] = biological target: T3, hNET; experiment: cell-based; conditions: read-out: [3H]NE release % METH maximal effect
[13] = biological target: T1, hDAT; experiment: [3H]Dopamine uptake, HEK-hDAT cells; assay type: cell-based
[14] = biological target: T4, human 5-HT1A receptor; experiment: [3H]8-OH-DPAT binding, HEK-5-HT1A
[15] = biological target: T1, hDAT; experiment: [125I]RTI-55 binding, HEK-hDAT cells
[16] = biological target: T5, hSERT; experiment: [125I]RTI-55 binding, HEK-hSERT cells

T1 sequence (Q01959 whole entry): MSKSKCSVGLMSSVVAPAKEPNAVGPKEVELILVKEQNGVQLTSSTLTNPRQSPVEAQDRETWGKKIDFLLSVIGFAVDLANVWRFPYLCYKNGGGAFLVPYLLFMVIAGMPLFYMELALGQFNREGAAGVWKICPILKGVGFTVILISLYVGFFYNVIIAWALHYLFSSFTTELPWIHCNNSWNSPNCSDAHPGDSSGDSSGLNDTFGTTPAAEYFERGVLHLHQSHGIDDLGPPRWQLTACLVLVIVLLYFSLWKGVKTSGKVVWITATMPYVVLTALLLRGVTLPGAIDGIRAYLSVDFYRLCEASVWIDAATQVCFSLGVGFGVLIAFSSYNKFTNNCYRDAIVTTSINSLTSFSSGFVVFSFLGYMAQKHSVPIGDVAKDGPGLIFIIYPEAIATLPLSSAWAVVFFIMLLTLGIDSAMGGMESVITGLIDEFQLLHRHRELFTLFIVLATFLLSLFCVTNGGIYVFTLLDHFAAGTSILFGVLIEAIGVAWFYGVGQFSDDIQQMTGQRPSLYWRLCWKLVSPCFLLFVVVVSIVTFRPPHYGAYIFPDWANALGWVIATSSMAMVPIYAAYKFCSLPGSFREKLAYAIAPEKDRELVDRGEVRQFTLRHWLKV
T2 sequence (P28223 whole entry): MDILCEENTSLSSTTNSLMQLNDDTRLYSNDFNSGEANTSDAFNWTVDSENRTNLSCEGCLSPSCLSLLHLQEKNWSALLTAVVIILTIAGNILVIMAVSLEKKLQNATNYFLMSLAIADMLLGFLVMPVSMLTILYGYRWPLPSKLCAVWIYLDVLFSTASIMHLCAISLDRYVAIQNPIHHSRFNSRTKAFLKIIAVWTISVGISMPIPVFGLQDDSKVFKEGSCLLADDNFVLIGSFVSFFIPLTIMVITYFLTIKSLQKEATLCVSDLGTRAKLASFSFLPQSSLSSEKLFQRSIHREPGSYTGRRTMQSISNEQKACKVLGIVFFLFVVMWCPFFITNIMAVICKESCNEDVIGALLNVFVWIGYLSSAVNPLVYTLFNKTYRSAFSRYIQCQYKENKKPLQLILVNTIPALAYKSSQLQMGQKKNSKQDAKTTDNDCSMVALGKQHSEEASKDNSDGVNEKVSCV
T3 sequence (P23975 whole entry): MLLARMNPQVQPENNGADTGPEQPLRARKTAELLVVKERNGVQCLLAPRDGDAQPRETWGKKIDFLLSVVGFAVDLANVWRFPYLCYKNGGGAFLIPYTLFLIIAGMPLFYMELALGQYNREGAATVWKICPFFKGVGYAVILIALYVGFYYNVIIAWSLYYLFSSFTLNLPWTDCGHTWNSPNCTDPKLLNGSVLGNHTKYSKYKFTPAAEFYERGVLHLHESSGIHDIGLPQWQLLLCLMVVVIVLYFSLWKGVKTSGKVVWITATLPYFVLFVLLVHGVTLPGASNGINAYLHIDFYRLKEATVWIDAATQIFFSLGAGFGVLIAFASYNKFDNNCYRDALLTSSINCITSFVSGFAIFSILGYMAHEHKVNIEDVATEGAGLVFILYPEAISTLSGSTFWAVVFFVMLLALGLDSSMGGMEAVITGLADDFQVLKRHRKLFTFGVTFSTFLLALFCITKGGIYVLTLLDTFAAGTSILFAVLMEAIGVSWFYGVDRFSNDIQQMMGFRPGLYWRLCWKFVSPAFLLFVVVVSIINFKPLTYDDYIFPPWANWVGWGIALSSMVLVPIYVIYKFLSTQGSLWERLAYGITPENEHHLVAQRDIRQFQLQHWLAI
T5 sequence (P31645 whole entry): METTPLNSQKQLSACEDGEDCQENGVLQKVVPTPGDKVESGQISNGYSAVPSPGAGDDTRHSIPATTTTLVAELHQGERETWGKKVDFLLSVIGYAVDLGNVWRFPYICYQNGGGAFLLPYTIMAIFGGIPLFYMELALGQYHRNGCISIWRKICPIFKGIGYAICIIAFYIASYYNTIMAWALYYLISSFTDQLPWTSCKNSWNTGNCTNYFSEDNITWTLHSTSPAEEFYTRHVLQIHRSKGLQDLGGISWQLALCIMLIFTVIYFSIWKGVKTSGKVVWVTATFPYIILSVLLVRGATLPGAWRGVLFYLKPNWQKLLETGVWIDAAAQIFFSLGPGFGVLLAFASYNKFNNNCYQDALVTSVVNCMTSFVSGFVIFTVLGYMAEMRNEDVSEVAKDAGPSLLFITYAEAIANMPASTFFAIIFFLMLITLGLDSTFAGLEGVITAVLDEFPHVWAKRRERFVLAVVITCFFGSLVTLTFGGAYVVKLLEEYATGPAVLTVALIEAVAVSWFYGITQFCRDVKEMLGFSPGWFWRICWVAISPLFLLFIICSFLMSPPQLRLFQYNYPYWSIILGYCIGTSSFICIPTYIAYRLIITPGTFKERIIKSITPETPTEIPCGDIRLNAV

## CN[C@@H](C)Cc1ccccc1 [METH, methamphetamine, reference compound]
[1]
  EC50: 0.97 ± 0.25 µM
[2]
  EC50: > 1000 µM
[2]; read-out: 5-HT2A Function IP-1 formation % maximal effect
  Emax: < 3%
[3]
  Emax: 100%
[4]
  IC50: 0.023 ± 0.0055 µM
[5]
  EC50: 0.067 ± 0.018 µM
[6]
  Ki: 41.9 ± 9.6 µM
[7]
  EC50: 23.6 ± 8.1 µM
[7]; read-out: 5-HT1A Function [35S]GTPγS Binding % maximal effect
  Emax: 68 ± 11%
[8]
  EC50: 27.8 ± 7.7 µM
[9]
  Ki: 1.48 ± 0.13 µM
[10]
  EC50: 74 ± 16 µM
[10]; read-out: 5-HT2C Function IP-formation % maximal effect
  Emax: 52 ± 10%
[11]
  Ki: 10.1 ± 3.2 µM
[12]
  Emax: 100%
[13]
  IC50: 0.056 ± 0.015 µM
[14]
  Ki: 9.7 ± 1.8 µM
[15]
  Ki: 4.75 ± 0.53 µM
[16]
  Ki: 188 ± 14 µM
